Measured values: US20260103474A1, “NOVEL COMPOUNDS FOR THE DIAGNOSIS OF TDP-43 PROTEINOPATHIES” (AC IMMUNE SA, priority 2022, published 2026)
Where two headings read alike, the source gives them in different places.

Legend:
[1] = molecular target: T1, Human brain derived TDP-43 aggregates (Homo sapiens, UniProt Q13148); test: Micro-radiobinding competition assay for binding affinity to TDP-43; settings: for Ki: 0.24 nM to 2 μM vs tritiated reference ligand at 40 nM; for Human brain derived TDP-43 aggregates Mean % competition at 250 nM: non-radiolabeled compound at 250 nM vs tritiated reference ligand at 40 nM; for Human brain derived TDP-43 aggregates Mean % competition at 250 nM / Human brain derived TDP-43 aggregates Mean % competition at 2 μM: FTD sarkosyl-insoluble brain extracts; for Human brain derived TDP-43 aggregates Mean % competition at 2 μM: non-radiolabeled compound at 2 μM vs tritiated reference ligand at 40 nM
T1 construct: Human FTD sarkosyl-insoluble brain extracts were spotted onto microarray slides
T1 sequence (Q13148 261-414 limits assumed): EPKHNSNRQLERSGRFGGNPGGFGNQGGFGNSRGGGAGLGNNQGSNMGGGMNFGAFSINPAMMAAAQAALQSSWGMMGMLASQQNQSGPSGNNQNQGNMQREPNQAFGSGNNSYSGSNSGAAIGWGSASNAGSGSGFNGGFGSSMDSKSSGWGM
Description: Human brain extracts were prepared as described in Laferriere et al., 2019, Nature Neurosc. A sample of brain tissue (frontal or temporal cortex) was homogenized at 1:4 (w/v) ratio in the homogenization-solubilization (HS) buffer at 4° C. using tissue homogenizer (Precellys) with CKmix homogenization tubes. The following sequence was used for homogenization: 3 cycles of 30 seconds at 5000 rpm (with 15 seconds pause between each cycle). Homogenized samples were aliquoted and stored at −80° C. in 1.5 mL low protein binding tubes.
Brain homogenates were thawed on ice and resuspended in HS buffer to obtain a final concentration of 2% sarkosyl, 1 unit/μL Benzonase and 1 mM MgCl2. The samples were then incubated at 37° C. under constant shaking at 600 rpm on a thermomixer for 45 minutes (min). The supernatants were collected in a new tube (sarkosyl-soluble fraction, S1). The pellet was resuspended in 1000 μL of myelin floatation buffer and centrifuged at 20,000 g for 60 min at 4° C. The supernatant was carefully removed to remove all the floating lipids. This step was repeated if all the lipids could not be removed in a single step. The pellet was subsequently washed with Phosphate-Buffered Saline (PBS) and centrifuged for 30 min at 20,000 g at 4° C. The final pellet was resuspended in 200 μL PBS and stored at −80° C. (sarkosyl-insoluble fraction). The samples were analyzed by immunoblotting in denaturing conditions.
Human FTD sarkosyl-insoluble brain extracts were spotted onto microarray slides. The slides were incubated with a tritiated reference ligand at 40 nM, and the example compounds (non-radiolabeled) at 2 μM and 250 nM. […] After incubation, slides were washed and scanned by a real-time autoradiography system (BeaQuant, ai4R). Quantification of the signal was performed by using the Beamage image analysis software (ai4R). Non-specific signal was determined with an excess of non-radiolabeled reference compound (2 μM) and specific binding was calculated by subtracting the non-specific signal from the total signal. Competition was calculated as percent, where 0% was defined as the specific binding in the presence of vehicle and 100% as the values obtained in the presence of excess of the non-radiolabeled reference compound. Ki values were calculated in GraphPad Prism8 by applying a nonlinear regression curve fit using a one site, specific binding model. Measurements were performed with at least two technical replicates in the two-concentration competition experiment and with one technical replicate in the experiments including a range of concentrations. For compounds tested in more than one experiment, the mean of the replicates or Ki values in independent experiments is reported.

Abeta = molecular target: T2, Abeta (Homo sapiens, UniProt P05067); test: Radiobinding competition assay using Abeta reference compound on AD insoluble fraction of brain homogenates; assay type: binding; settings: against [3H]Abeta reference compound
T2 construct: an AD donor with confirmed burden of Tau and Abeta aggregates; from tissue; host or cells: frontal cortex of a human AD donor, Triton/sucrose-insoluble fraction
T2 sequence (P05067 672-713 limits assumed): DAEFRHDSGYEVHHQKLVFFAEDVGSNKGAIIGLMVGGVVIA
Description: Approximately 4 g of frozen tissue block from frontal cortex brain region was used from an AD donor with confirmed burden of Tau and Abeta aggregates. The tissue was homogenized in three volumes (1:3 w/v) of high salt buffer (50 mM Tris-HCl pH 7.5, 750 mM NaCl, 5 mM EDTA) supplemented with protease inhibitors (Complete; Roche 11697498001) at 4° C. with a glass Dounce homogenizer. The homogenate was transferred into polycarbonate centrifuge bottles (16×76 mm; Beckman 355603) and centrifuged at 100,000×g (38,000 RPM) in an ultracentrifuge (Beckman, XL100K) for 60 minutes at 4° C. using a pre-cooled 70.1 rotor (Beckman, 342184). Pellets were resuspended in high salt buffer supplemented with 1% Triton X-100 and homogenized at 4° C. with a syringe. The homogenates were centrifuged again at 100,000×g (38,000 RPM, 70.1 rotor) for 60 minutes at 4° C. Pellets were resuspended in high salt buffer supplemented with 1% Triton X-100 and 1 M sucrose and homogenized at 4° C. with a syringe. The homogenates were centrifuged at 100,000×g (38,000 RPM, 70.1 rotor) for 60 minutes at 4° C. The resulting pellets containing insoluble fraction were resuspended in PBS (1:2 w/v relative to starting tissue weight), aliquoted and stored at −80° C. until use.
The reaction was performed in assay buffer (50 mM Tris pH 7.5 in 0.9% NaCl, 0.1% BSA) and incubated for two hours at room temperature (RT). Samples in duplicate were then filtered under vacuum in GF/C filter plates (PerkinElmer) to trap the aggregates with the bound radioligand and washed with 100 μL ice-cold 50 mM Tris pH 7.5. The GF/C filters were then dried and scintillation liquid (UltimateGold, PerkinElmer, 6013151) was added in each well. The filters were analyzed on a Microbeta2 scintillation counter (PerkinElmer). Values for the maximal signal were obtained in the absence of non-radiolabeled compound, while 100% displacement was obtained using 1 μM of non-radiolabeled reference compound. Ki values were calculated by nonlinear regression, using a one site—fit Ki model in Prism V7 (GraphPad).

[2] = cells printed in μM, read-out: Ki on AD brain homogenates
[3] = read-out: Ki (nM) on AD brain homogenates

Structure (SMILES)	Ki [1] [µM]	Human brain derived TDP-43 aggregates Mean % competition at 250 nM [1] [%]	Human brain derived TDP-43 aggregates Mean % competition at 2 μM [1] [%]	Ki (Abeta; [2]) [µM]	Ki (Abeta; [3]) [µM]
O=C1c2sc(-c3ccc(N4CC[C@@H](F)C4)nc3F)nc2CCN1c1cncnc1 [Compound 13]	–	57	84	> 1	–
O=C1c2sc(-c3ccc(N4CCCCC4)nc3F)nc2CCN1c1ccnc(F)c1 [Compound 23, 2-(2-fluoro-6-(piperidin-1-yl)pyridin-3-yl)-5-(2-fluoropyridin-4-yl)-6,7-dihydrothiazolo[5,4-c]pyridin-4(5H)-one]	0.025	73	104	> 1	–
O=C1c2sc(-c3ccc(N4CCCC4)nc3F)nc2CCN1c1ccc(F)nc1 [Compound 12]	–	56	59	–	–
Nc1cc(N2CCc3nc(-c4ccc(N5CCCC5)nc4F)sc3C2=O)ccc1F [Compound 10, 5-(3-amino-4-fluorophenyl)-2-(2-fluoro-6-(pyrrolidin-1-yl)pyridin-3-yl)-6,7-dihydrothiazolo[5,4-c]pyridin-4(5H)-one]	0.016	52	75	–	0.35
O=C1c2sc(-c3ccc(N4CCCC4)nc3F)nc2CCN1c1ccncc1 [Compound 14]	–	48	34	–	–
O=C1c2sc(-c3ccc(N4CC[C@@H](F)C4)nc3F)nc2CCN1c1cnsc1 [Compound 22]	0.054	68	100	–	–
Cn1cc(N2CCc3nc(-c4ccc(N5CC[C@@H](F)C5)nc4F)sc3C2=O)cn1 [Compound 11]	–	73	102	–	–
O=C1c2sc(-c3ccc(N4CC[C@H](F)C4)nc3F)nc2CCN1c1ncccn1 [Compound 16]	0.005	67	96	> 1	–
Cn1cc(N2CCc3nc(-c4ccc(N5CCCC5)nc4F)sc3C2=O)cn1 [Compound 21]	0.03	46	85	–	–
O=C1c2sc(-c3ccc(N4CCCC4)nc3F)nc2CCN1c1cccnc1 [Compound 9, 2-(2-fluoro-6-(pyrrolidin-1-yl)pyridin-3-yl)-5-(pyridin-3-yl)-6,7-dihydrothiazolo[5,4-c]pyridin-4(5H)-one]	0.031	62	75	> 1	–

Continued, values first:

Ki [1] [µM]	Human brain derived TDP-43 aggregates Mean % competition at 250 nM [1] [%]	Human brain derived TDP-43 aggregates Mean % competition at 2 μM [1] [%]	Ki (Abeta; [2]) [µM]	Ki (Abeta; [3]) [µM]	Structure (SMILES)
0.005	60	77	> 1	–	N#Cc1c(N)cccc1N1CCc2nc(-c3ccc(N4CC[C@@H](F)C4)nc3F)sc2C1=O [Compound 34]
0.043	45	86	> 1	–	Nc1cc(N2CCc3nc(-c4ccc(N5CCC[C@H](F)C5)nc4F)sc3C2=O)ccn1 [Compound 29]
0.036	60	86	–	–	O=C1c2sc(-c3ccc(N4CC[C@@H](F)C4)nc3F)nc2CCN1c1cscn1 [Compound 33]
0.051	51	73	> 1	–	O=C1c2sc(-c3ccc(N4CC[C@@H](F)C4)nc3F)nc2CCN1c1ccncc1 [Example 7]
0.007	66	93	–	–	N#Cc1c(N)cccc1N1CCc2nc(-c3ccc(N4CCC[C@@H](F)C4)nc3F)sc2C1=O [Compound 30]
0.004	62	70	> 1	–	N#Cc1c(N)cccc1N1CCc2nc(-c3ccc(N4CCC[C@H](F)C4)nc3F)sc2C1=O [Compound 31]
0.013	55	91	–	0.318	Nc1cc(N2CCc3nc(-c4ccc(N5CC[C@H](F)C5)nc4F)sc3C2=O)ccn1 [Compound 26]
0.025	80	70	> 1	–	O=C1c2sc(-c3ccc(N4CC[C@H](F)C4)nc3F)nc2CCN1c1ccncn1 [Compound 37]
0.048	57	94	> 1	–	O=C1c2sc(-c3ccc(N4CCC[C@H](F)C4)nc3F)nc2CCN1c1cnsc1 [Compound 27, (S)-2-(2-fluoro-6-(3-fluoropiperidin-1-yl)pyridin-3-yl)-5-(isothiazol-4-yl)-6,7-dihydrothiazolo[5,4-c]pyridin-4(5H)-one]
0.004	65	80	> 1	–	N#Cc1c(N)cccc1N1CCc2nc(-c3ccc(N4CC[C@H](F)C4)nc3F)sc2C1=O [Compound 32]
0.065	61	83	> 1	–	O=C1c2sc(-c3ccc(N4CCC[C@@H](F)C4)nc3F)nc2CCN1c1cnsc1 [Compound 24, (R)-2-(2-fluoro-6-(3-fluoropiperidin-1-yl)pyridin-3-yl)-5-(isothiazol-4-yl)-6,7-dihydrothiazolo[5,4-c]pyridin-4(5H)-one]
0.048	78	96	> 1	–	O=C1c2sc(-c3ccc(N4CC[C@H](F)C4)nc3F)nc2CCN1c1cnsc1 [Compound 25, (S)-2-(2-fluoro-6-(3-fluoropyrrolidin-1-yl)pyridin-3-yl)-5-(isothiazol-4-yl)-6,7-dihydrothiazolo[5,4-c]pyridin-4(5H)-one]
0.007	66	75	–	–	O=C1c2sc(-c3ccc(N4CC[C@H](F)C4)nc3F)nc2CCN1c1ccnnc1 [Compound 36]
